Experimental data from patent publication US20150125915A1, “Method for Producing Lactic Acid” (Kao Corporation, priority 2012, published 2015).

Test system: Rhizopus oryzae JCM14625 strain (=NBRC 5384)
Test: Evaluation of ability to produce lactic acid-1 (production rate of lactic acid)
Type: cell-based
Details: 0.5% (w/v) surfactant in PDB medium at spore germination; rate in the absence of the surfactant = 100
Method: Specifically, the mycelia of a fungus of the genus Rhizopus were prepared by the method of Production Example 2 using the surfactant and then grown by the method of Production Example 3. 6.0 g of the obtained wet fungus bodies of the genus Rhizopus was inoculated to 40 mL of an inorganic culture medium for lactic acid production evaluation (composition: 8.0% glucose, 0.1% ammonium sulfate, 0.06% potassium dihydrogen phosphate, 0.025% magnesium sulfate heptahydrate, 0.009% zinc sulfate heptahydrate, and 5.0% calcium carbonate; all the concentrations mean % (w/v)) applied to a 200-mL Erlenmeyer flask, and then cultured at 35° C. with stirring at 170 rpm. The supernatant of the culture medium was recovered every 2 hours from 30 minutes after the fungus body inoculation. Glucose and lactic acid were quantified by the procedures described later in Reference Example 1. A relative value of the production rate of lactic acid was determined on the basis of the calculation method described in Reference Example 2.
Glucose and lactic acid were quantified using an HPLC apparatus LaChrom Elite (manufactured by Hitachi High-Technologies Corp.). The analytical column used was a carbohydrate/organic acid analysis column HPX-87H (7.8 mm I.D.×30 cm, manufactured by Bio-Rad Laboratories, Inc.) connected with a guard column Cation H (4.6 mm I.D.×3.0 cm, manufactured by Bio-Rad Laboratories, Inc.). Elution was performed under conditions involving 10 mM sulfuric acid as an eluent, a flow rate of 0.85 mL/min, and a column temperature of 50° C. Glucose and lactic acid were detected using a differential refractive index detector (RI detector) and a UV detector (detection wavelength: 210 nm), respectively. The standard samples used were glucose (distributor code: 049-31165, manufactured by Wako Pure Chemical Industries Ltd.), and lithium L-lactate (product number: L2250, manufactured by Sigma-Aldrich Inc.). Quantification was performed on the basis of concentration calibration curves prepared using these standard samples.
The supernatant sample of each culture medium to be subjected to HPLC analysis was appropriately diluted in advance with 37 mM sulfuric acid and then applied to DISMIC-13cp (0.20 μm cellulose acetate membrane, manufactured by […] Group) or MULTI SCREEN MNHV45 (0.45 μm Durapore membrane, manufactured by EMD Millipore) to remove insoluble matter.
The concentration of lactic acid (unit: g of lactic acid/L of medium) in the supernatant sample of each culture medium was measured according to Reference Example 1 and divided by a time (unit: hr) required for change in lactic acid concentration to calculate the production rate of lactic acid per unit time (unit: g of lactic acid/L/hr). In addition, a relative value to the production rate of lactic acid under control conditions in each Production Example was determined.

Sorbitan monolaurate
Production rate of lactic acid (relative value): 152 relative value
